Laboratory results published in US12617797B2, “Substituted pyrazolo [1,5-a]pyrimidines having multimodal activity against pain” (ESTEVE PHARMACEUTICALS, S.A., priority 2020, dated 2026).

Tests used:
[1] = target: Human α2δ-1 subunit of Cav2.2 calcium channel (Homo sapiens, UniProt P54289); experiment: Human α2δ-1 subunit of Cav2.2 calcium channel assay ([3H]-gabapentin binding); conditions: binding to the α2δ-1 subunit of voltage-gated calcium channels expressed as Ki; + also covers inhibition between 1% and 50%
Procedure, shortened: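 Membranes enriched in human α2δ-1 incubated with 15 nM [3H]-gabapentin in 10 mM Hepes-KOH pH 7.4, 60 min at 27 °C; nonspecific binding defined with 10 μM pregabalin. Filtration and scintillation counting; % inhibition at 1 or 10 μM, or Ki from five concentrations.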

[2] = target: T1, Human σ1 receptor (Homo sapiens, UniProt Q99720); experiment: Human σ1 receptor radioligand assay ([3H](+)-pentazocine binding, transfected HEK-293 membranes); conditions: binding to σ1 receptor expressed as Ki; + also covers inhibition between 1% and 50%; read-out: σ-1 binding
T1 construct: expressed in transfected cells; host or cells: HEK-293
Procedure, shortened: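 Membranes (7 μg) were incubated with 5 nM [3H](+)-pentazocine in 50 mM Tris-HCl pH 8 for 120 min at 37° C. Non-specific binding was defined with 10 μM haloperidol. Values are % inhibition at 1 or 10 μM or Ki from five concentrations, read by filtration and scintillation counting.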

T1 sequence (Q99720 whole entry): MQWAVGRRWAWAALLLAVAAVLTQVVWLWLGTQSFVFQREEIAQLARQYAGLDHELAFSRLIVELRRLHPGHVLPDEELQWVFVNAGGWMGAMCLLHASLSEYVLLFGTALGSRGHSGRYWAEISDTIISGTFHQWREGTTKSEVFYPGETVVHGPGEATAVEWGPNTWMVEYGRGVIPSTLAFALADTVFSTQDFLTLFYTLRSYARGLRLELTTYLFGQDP
Sequence of Human α2δ-1 subunit of Cav2.2 calcium channel (P54289 25-1103): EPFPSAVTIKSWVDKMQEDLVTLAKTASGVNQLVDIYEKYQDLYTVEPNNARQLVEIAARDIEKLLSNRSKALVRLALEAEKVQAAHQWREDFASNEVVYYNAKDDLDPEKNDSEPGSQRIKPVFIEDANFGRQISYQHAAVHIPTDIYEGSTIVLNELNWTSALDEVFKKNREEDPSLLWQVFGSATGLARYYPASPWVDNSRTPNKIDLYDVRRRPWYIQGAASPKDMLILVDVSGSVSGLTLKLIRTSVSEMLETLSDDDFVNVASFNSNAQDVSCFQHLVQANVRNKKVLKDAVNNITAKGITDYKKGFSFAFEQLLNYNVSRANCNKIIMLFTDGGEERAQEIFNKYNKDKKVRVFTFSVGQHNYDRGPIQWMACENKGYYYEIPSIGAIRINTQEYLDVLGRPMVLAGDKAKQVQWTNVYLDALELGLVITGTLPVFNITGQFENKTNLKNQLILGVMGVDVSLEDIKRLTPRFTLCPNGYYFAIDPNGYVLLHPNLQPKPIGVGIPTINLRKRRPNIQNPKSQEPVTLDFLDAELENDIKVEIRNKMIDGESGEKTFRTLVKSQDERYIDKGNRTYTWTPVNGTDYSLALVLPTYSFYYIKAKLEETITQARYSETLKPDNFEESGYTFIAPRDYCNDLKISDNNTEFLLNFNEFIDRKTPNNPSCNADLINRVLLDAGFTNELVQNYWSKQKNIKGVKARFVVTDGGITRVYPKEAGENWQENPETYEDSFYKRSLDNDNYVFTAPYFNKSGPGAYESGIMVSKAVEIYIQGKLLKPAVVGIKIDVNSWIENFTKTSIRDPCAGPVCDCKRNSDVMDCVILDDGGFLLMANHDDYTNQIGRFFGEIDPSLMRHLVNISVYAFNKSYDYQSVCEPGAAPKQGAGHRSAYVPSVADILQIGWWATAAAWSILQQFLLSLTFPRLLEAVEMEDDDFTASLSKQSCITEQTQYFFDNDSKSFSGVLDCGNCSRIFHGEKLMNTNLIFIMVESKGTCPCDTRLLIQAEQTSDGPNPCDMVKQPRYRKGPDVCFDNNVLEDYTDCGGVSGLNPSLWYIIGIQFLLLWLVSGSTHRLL

| Compound | Ki [1] | Ki [2] |
| --- | --- | --- |
| Cc1nn2c(C3CCCN(Cc4ccc(Cl)cc4)C3)ccnc2c1CN(CC1CCOCC1)C(C)C (stereo not shown) [Example 232, N-((7-(1-(4-Chlorobenzyl)piperidin-3-yl)-2-methylpyrazolo[1,5-a]pyrimidin-3-yl)methyl)-N-((tetrahydro-2H-pyran-4-yl)methyl)propan-2-amine] | > 5000 nM | < 500 nM |
| Cc1nn2c(C3CCCN(Cc4ccccc4)C3)ccnc2c1CN(CC1C[C@@H](C)O[C@@H](C)C1)C(C)C (stereo partly drawn) [Example 233, N-((7-(1-Benzylpiperidin-3-yl)-2-methylpyrazolo[1,5-a]pyrimidin-3-yl)methyl)-N-(((2R,6S)-2,6-dimethyltetrahydro-2H-pyran-4-yl)methyl)propan-2-amine] | > 5000 nM | 500 to 1000 nM |
| Cc1nn2c(C3CCCN(Cc4ccc(Cl)cc4)C3)ccnc2c1CN(CC1CCOCC1)CC(F)(F)F (stereo not shown) [Example 235, N-((7-(1-(4-Chlorobenzyl)piperidin-3-yl)-2-methylpyrazolo[1,5-a]pyrimidin-3-yl)methyl)-2,2,2-trifluoro-N-((tetrahydro-2H-pyran-4-yl)methyl)ethan-1-amine] | > 5000 nM | 500 to 1000 nM |
| Cc1nn2c([C@H]3CCCN(Cc4ccccc4F)C3)ccnc2c1CNCC1CCOCC1 [Example 239, (S)-1-(7-(1-(2-Fluorobenzyl)piperidin-3-yl)-2-methylpyrazolo[1,5-a]pyrimidin-3-yl)-N-((tetrahydro-2H-pyran-4-yl)methyl)methanamine] | > 5000 nM | < 500 nM |
| Cc1nn2c([C@H]3CCCN(Cc4cc(F)cc(F)c4)C3)ccnc2c1CNCC1CCOCC1 [Example 241, (S)-1-(7-(1-(3,5-Difluorobenzyl)piperidin-3-yl)-2-methylpyrazolo[1,5-a]pyrimidin-3-yl)-N-((tetrahydro-2H-pyran-4-yl)methyl)methanamine] | > 5000 nM | < 500 nM |
| COc1ccc(CN2CCCC(c3ccnc4c(CNCC5CCOCC5)c(C)nn34)C2)cc1 (stereo not shown) [Example 242, 1-(7-(1-(4-Methoxybenzyl)piperidin-3-yl)-2-methylpyrazolo[1,5-a]pyrimidin-3-yl)-N-((tetrahydro-2H-pyran-4-yl)methyl)methanamine] | > 5000 nM | < 500 nM |
| COc1nn2c(C3CCCN(Cc4ccccc4)C3)ccnc2c1CNCC1CCOCC1 (stereo not shown) [Example 248, 1-(7-(1-Benzylpiperidin-3-yl)-2-methoxypyrazolo[1,5-a]pyrimidin-3-yl)-N-((tetrahydro-2H-pyran-4-yl)methyl)methanamine] | 500 to 5000 nM | 500 to 1000 nM |
| Cc1nn2c(CC3CCCN(Cc4ccc(Cl)cc4)C3)ccnc2c1-c1ccncc1 (stereo not shown) [Example 249, 7-((1-(4-Chlorobenzyl)piperidin-3-yl)methyl)-2-methyl-3-(pyridin-4-yl)pyrazolo[1,5-a]pyrimidine] | > 5000 nM | < 500 nM |
| Cc1nn2c(CC3CCCN(Cc4cccc(Cl)c4)C3)ccnc2c1-c1ccncc1 (stereo not shown) [Example 250] | > 5000 nM | 500 to 1000 nM |
| Cc1nn2c(CC3CCCN(Cc4ccc(Cl)cc4)C3)ccnc2c1CN(C)C (stereo not shown) [Example 251, 1-(7-((1-(4-Chlorobenzyl)piperidin-3-yl)methyl)-2-methylpyrazolo[1,5-a]pyrimidin-3-yl)-N,N-dimethylmethanamine] | > 5000 nM | < 500 nM |
| Cc1nn2c(CC3CCCN(Cc4cccc(Cl)c4)C3)ccnc2c1CN(C)C (stereo not shown) [Example 252, 1-(7-((1-(3-Chlorobenzyl)piperidin-3-yl)methyl)-2-methylpyrazolo[1,5-a]pyrimidin-3-yl)-N,N-dimethylmethanamine] | > 5000 nM | < 500 nM |
| Cc1nn2c(C3CCCCN(Cc4ccc(Cl)cc4)C3)ccnc2c1CNCC1CCOCC1 (stereo not shown) [Example 253, 1-(7-(1-(4-Chlorobenzyl)azepan-3-yl)-2-methylpyrazolo[1,5-a]pyrimidin-3-yl)-N-((tetrahydro-2H-pyran-4-yl)methyl)methanamine] | > 5000 nM | < 500 nM |

Other lines, results leading:

| Ki [1] | Ki [2] | Compound |
| --- | --- | --- |
| 500 to 5000 nM | < 500 nM | Cc1nn2c(C3CCCN(Cc4ccc(Cl)cc4)C3)ccnc2c1CN(C)CC1CCOCC1 (stereo not shown) [Example 231, 1-(7-(1-(4-Chlorobenzyl)piperidin-3-yl)-2-methylpyrazolo[1,5-a]pyrimidin-3-yl)-N-methyl-N-((tetrahydro-2H-pyran-4-yl)methyl)methanamine] |
| 500 to 5000 nM | < 500 nM | Cc1nn2c(C3CCCN(Cc4ccccc4)C3)ccnc2c1CN(C)CC1CC1 (stereo not shown) [Example 234, 1-(7-(1-Benzylpiperidin-3-yl)-2-methylpyrazolo[1,5-a]pyrimidin-3-yl)-N-(cyclopropylmethyl)-N-methylmethanamine] |
| 500 to 5000 nM | < 500 nM | Cc1nn2c(C3CCCN(Cc4ccc(Cl)cc4)C3)ccnc2c1CCN(C)C (stereo not shown) [Example 236, 2-(7-(1-(4-Chlorobenzyl)piperidin-3-yl)-2-methylpyrazolo[1,5-a]pyrimidin-3-yl)-N,N-dimethylethan-1-amine] |
| < 500 nM | < 500 nM | Cc1cnc2c(CNCC3CCOCC3)c(C)nn2c1C1CCCN(Cc2ccc(Cl)cc2)C1 (stereo not shown) [Example 237, 1-(7-(1-(4-Chlorobenzyl)piperidin-3-yl)-2,6-dimethylpyrazolo[1,5-a]pyrimidin-3-yl)-N-((tetrahydro-2H-pyran-4-yl)methyl)methanamine] |
| 500 to 5000 nM | < 500 nM | Cc1cc(C2CCCN(Cc3ccc(Cl)cc3)C2)n2nc(C)c(CNCC3CCOCC3)c2n1 (stereo not shown) [Example 238, 1-(7-(1-(4-Chlorobenzyl)piperidin-3-yl)-2,5-dimethylpyrazolo[1,5-a]pyrimidin-3-yl)-N-((tetrahydro-2H-pyran-4-yl)methyl)methanamine] |
| 500 to 5000 nM | < 500 nM | Cc1nn2c([C@H]3CCCN(Cc4ccc(F)cc4F)C3)ccnc2c1CNCC1CCOCC1 [Example 240, (S)-1-(7-(1-(2,4-Difluorobenzyl)piperidin-3-yl)-2-methylpyrazolo[1,5-a]pyrimidin-3-yl)-N-((tetrahydro-2H-pyran-4-yl)methyl)methanamine] |
| 500 to 5000 nM | > 1000 nM | Cc1nn2c([C@H]3CCCN(Cc4ccccc4)C3)ccnc2c1CNC[C@@H]1CCN(C)C(=O)C1 [Example 243, (R)-4-((((7-((S)-1-Benzylpiperidin-3-yl)-2-methylpyrazolo[1,5-a]pyrimidin-3-yl)methyl)amino)methyl)-1-methylpiperidin-2-one] |
| 500 to 5000 nM | > 1000 nM | Cc1nn2c([C@H]3CCCN(Cc4ccccc4)C3)ccnc2c1CNC[C@H]1CCN(C)C(=O)C1 [Example 244, (S)-4-((((7-((S)-1-Benzylpiperidin-3-yl)-2-methylpyrazolo[1,5-a]pyrimidin-3-yl)methyl)amino)methyl)-1-methylpiperidin-2-one] |
| 500 to 5000 nM | > 1000 nM | Cc1nn2c([C@H]3CCCN(Cc4ccccc4)C3)ccnc2c1CNC[C@H]1CCC(=O)NC1 [Example 245, (R)-5-((((7-((S)-1-Benzylpiperidin-3-yl)-2-methylpyrazolo[1,5-a]pyrimidin-3-yl)methyl)amino)methyl)piperidin-2-one] |
| 500 to 5000 nM | > 1000 nM | Cc1nn2c([C@H]3CCCN(Cc4ccccc4)C3)ccnc2c1CNC[C@@H]1CCC(=O)NC1 [Example 246, (S)-5-((((7-((S)-1-Benzylpiperidin-3-yl)-2-methylpyrazolo[1,5-a]pyrimidin-3-yl)methyl)amino)methyl)piperidin-2-one] |
| < 500 nM | < 500 nM | CC(=O)N1CCC(CNCc2c(C)nn3c([C@H]4CCCN(Cc5ccc(F)c(F)c5)C4)ccnc23)CC1 [Example 247, (S)-1-(4-((((7-(1-(3,4-Difluorobenzyl)piperidin-3-yl)-2-methylpyrazolo[1,5-a]pyrimidin-3-yl)methyl)amino)methyl)piperidin-1-yl)ethan-1-one] |
